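Exposure lasted 48 hours, with cells grown in 96-well plates and compounds tested at five concentrations. TGI: concentration producing complete growth inhibition.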
How the values were obtained:
Test in all cases: NCI-60 cell line screen, 48 h
SNB-75 CNS = test system: SNB-75 CNS
SF-268 CNS = test system: SF-268 CNS
DU-145 prostate = test system: DU-145 prostate
HCT-15 colon = test system: HCT-15 colon
COLO 205 colon = test system: COLO 205 colon
UACC-257 melanoma = test system: UACC-257 melanoma
SK-OV-3 ovarian = test system: SK-OV-3 ovarian
MDA-MB-435 = test system: MDA-MB-435
OVCAR-8 ovarian = test system: OVCAR-8 ovarian
SW-620 colon = test system: SW-620 colon
OVCAR-5 ovarian = test system: OVCAR-5 ovarian
A498 renal = test system: A498 renal
786-0 renal = test system: 786-0 renal
NCI/ADR-RES ovarian = test system: NCI/ADR-RES ovarian
SK-MEL-28 melanoma = test system: SK-MEL-28 melanoma
NCI-H460 lung = test system: NCI-H460 lung
MDA-MB-231 breast = test system: MDA-MB-231 breast
LOX IMVI melanoma = test system: LOX IMVI melanoma
SR leukemia = test system: SR leukemia
UACC-62 melanoma = test system: UACC-62 melanoma

| Structure (SMILES) | TGI (SNB-75 CNS) [µM] | TGI (SF-268 CNS) [µM] | TGI (DU-145 prostate) [µM] | TGI (HCT-15 colon) [µM] | TGI (COLO 205 colon) [µM] | TGI (UACC-257 melanoma) [µM] | TGI (SK-OV-3 ovarian) [µM] | TGI (MDA-MB-435) [µM] | TGI (OVCAR-8 ovarian) [µM] | TGI (SW-620 colon) [µM] | TGI (OVCAR-5 ovarian) [µM] | TGI (A498 renal) [µM] | TGI (786-0 renal) [µM] | TGI (NCI/ADR-RES ovarian) [µM] | TGI (SK-MEL-28 melanoma) [µM] | TGI (NCI-H460 lung) [µM] | TGI (MDA-MB-231 breast) [µM] | TGI (LOX IMVI melanoma) [µM] | TGI (SR leukemia) [µM] | TGI (UACC-62 melanoma) [µM] |
| --- | --- | --- | --- | --- | --- | --- | --- | --- | --- | --- | --- | --- | --- | --- | --- | --- | --- | --- | --- | --- |
| Cc1ccc(CC(Cc2ccc(C)cc2C(=O)O)C(=O)O)cc1 (stereo unspecified) | > 100 | > 100 | > 100 | > 100 | > 100 | > 100 | > 100 | > 100 | > 100 | > 100 | > 100 | > 100 | > 100 | > 100 | > 100 | > 100 | > 100 | > 100 | > 100 | > 100 |
| CC(=O)Oc1cc(C)c(OC(C)=O)c2c1[C@H]1CC[C@]3(C)[C@@H](OC(C)=O)CC[C@H]3[C@@H]1CC2 | 52.1 | 47.6 | 31.5 | 31.3 |  | 30 |  | 27.7 | 44.7 | 34.3 | 36 | 32.8 | 43.1 | 41.2 | 29.9 | 33.1 | 32.7 | 29.3 | > 100 | 32.8 |
| COc1ccc(N=Nc2ccc3oc(=O)c(C(=O)Nc4ccc(Cl)cc4)cc3c2)cc1 | > 10 | > 10 | > 10 | > 10 | > 10 | > 10 | > 10 | > 10 | > 10 | > 10 | > 10 | > 10 | > 10 | > 10 | > 10 | > 10 | > 10 | > 10 | > 10 |  |
| CN(/N=C\c1ccc2ccccc2c1)C1=NCCN1 | 41.5 | 84.1 | > 100 | > 100 | 31.9 | 29.5 | > 100 | 30.1 | > 100 | 41.7 | > 100 | 28.6 | 47.4 | 82.1 | 28.4 | 30.6 | 36.1 | 25.4 | 56.6 | 38.8 |
| COC(=O)C1=C(O)CCCC(CCC(C)=O)=C1 | > 100 | > 100 | > 100 | > 100 | 55.2 | > 100 | > 100 | > 100 | > 100 | > 100 | > 100 | > 100 | 77.3 | > 100 | > 100 | > 100 | > 100 | > 100 | 66 | > 100 |
| Clc1ccc(C=NC23CC4CC(CC(C4)C2)C3)cc1Cl | > 10 | > 10 | > 10 | > 10 | > 10 | > 10 | > 10 | > 10 | > 10 | > 10 | > 10 | > 10 | > 10 | > 10 | > 10 | > 10 | > 10 | > 10 | > 10 | > 10 |
| S=C1N=C(Cl)/C(=C\c2ccco2)N1 | > 100 | > 100 | > 100 | > 100 | > 100 | > 100 | > 100 | > 100 | > 100 | > 100 | > 100 | > 100 | > 100 | > 100 | > 100 | > 100 | > 100 | > 100 | > 100 | > 100 |
| C[C@H](CCC(=O)O)[C@H]1CC[C@H]2[C@@H]3[C@H](O)C[C@@H]4C[C@H](O)CC[C@]4(C)[C@H]3CC[C@]12C | 57.4 | > 100 | > 100 | > 100 | 45.7 | > 100 |  | > 100 | 37.7 | > 100 | > 100 | > 100 | > 100 | > 100 | > 100 | 92 | > 100 | > 100 | 47.4 | > 100 |
| COc1cc2c(c(OC)c1OC)C(=O)[C@H](Br)[C@H]2NC(=O)NCCCl | > 100 | > 100 | > 100 | > 100 | > 100 | > 100 | > 100 | > 100 | > 100 | > 100 | > 100 | > 100 | > 100 | > 100 | > 100 | > 100 | > 100 | > 100 | > 100 | > 100 |

Source: PubChem BioAssay (NCI)
